{
  "source": "patent US20140170768A1",
  "about": "“METHOD FOR MONITORING AND ASSESSING PITUITARY FUNCTION” (priority 2012, published 2014)",
  "format_in_all_cases": "in vivo, human",
  "key": {"[1]": {"test_system": "patients with Cushing's disease", "assay": "Case One: ACTH and cortisol response to mifepristone in Cushing's disease patients after transphenoidal surgery, with or without radiation therapy", "excerpt": "(§1) Hypercortisolism can result from excessive pituitary ACTH secretion, ectopic ACTH synthesis, overproduction of cortisol by an adrenal tumor, and rarely by extra-hypothalamic CRH production. Identifying the cause of excess cortisol production relies upon the sensitivity of pituitary-dependent ACTH secretion to inhibition by pharmacologic doses of dexamethasone. Mifepristone is a glucocorticoid receptor antagonist approved for the treatment of hyperglycemia in patients with Cushing's disease. It was hypothesized that mifepristone, by blocking glucocorticoid receptors, could be used to identify patients with pituitary-dependent hypercortisolism (i.e., Cushing's disease), as ACTH and cortisol levels should rise in these patients following mifepristone administration, while ACTH and cortisol should not change following mifepristone administration in patients with ectopic ACTH or primary adrenal disease (i.e., Cushing's syndrome). To test this hypothesis, patients with either Cushing's Disease or Cushing's Syndrome were administered mifepristone and monitored under the following conditions. Data are presented relating to ACTH and cortisol responses in patients with Cushing's disease following transphenoidal surgery (n=18) (i.e., surgery in which surgical instruments are inserted into part of the brain by going through the nose and the sphenoid bone (a butterfly-shaped bone at the base of the skull) in order to remove tumors of the pituitary gland), patients with Cushing's disease following transphenoidal surgery and pituitary radiation therapy (n=23), and patients with Cushing's syndrome secondary to ectopic ACTH secretion (n=4). All patients received mifepristone 300 mg orally per day. ACTH and cortisol were measured as close to 8 AM as possible using a centralized laboratory (Quest Diagnostics, Collegeville, Pa.) 14 days after commencing mifepristone therapy."}, "[2]": {"test_system": "patients with Cushing's syndrome secondary to ectopic ACTH secretion", "assay": "Case One: ACTH and cortisol response to mifepristone in Cushing's syndrome secondary to ectopic ACTH secretion", "excerpt": "as §1"}, "[3]": {"test_system": "person with recurrent Cushing's disease", "assay": "Case Two: ACTH and cortisol before and after a single mifepristone dose in recurrent Cushing's disease", "conditions": "8 AM the morning following a 300 mg dose", "procedure": "A person with recurrent Cushing's disease following pituitary surgery received a dose of 300 mg mifepristone. ACTH and cortisol were measured at 8 AM prior to and at 8 AM the morning following the dose of mifepristone."}, "[4]": {"test_system": "person with adrenal insufficiency", "assay": "Case Three: ACTH and cortisol before and after a single mifepristone dose in adrenal insufficiency", "conditions": "8 AM on the day after a single 300 mg dose", "procedure": "ACTH and cortisol levels were low (ACTH<[…] and cortisol 2.4 micrograms/deciliter following exogenous ACTH administration). Based upon the finding of both low ACTH and cortisol, the cause of their adrenal insufficiency could be due to pituitary or to hypothalamic disease. […] ACTH and cortisol were measured at 8 AM on the day after they received a single dose of 300 mg mifepristone."}, "[5]": {"conditions": "Cushing's disease after surgery and radiation therapy, Day 14 vs Day 0, mifepristone 300 mg/day orally"}, "[6]": {"conditions": "Cushing's disease, no radiation therapy, Day 14 vs Day 0, mifepristone 300 mg/day orally"}, "[7]": {"conditions": "Cushing's syndrome due to ectopic ACTH, Day 14 vs Day 0, NS"}},
  "data": [
    {"smiles": "CC#C[C@]1(O)CC[C@H]2[C@@H]3CCC4=CC(=O)CCC4=C3[C@@H](c3ccc(N(C)C)cc3)C[C@@]21C", "note": "[mifepristone]", "values": [
      {"measurement": "ACTH s/p RT, Fold change", "setting": "[1]; [5]", "result": "1.40 ± .45"},
      {"measurement": "cortisol s/p RT, Fold change", "setting": "[1]; [5]", "result": "1.24 ± .23"},
      {"measurement": "rise in ACTH and cortisol, no radiation therapy versus radiation therapy", "setting": "[1]; Cushing's disease no RT compared with s/p RT, mifepristone 300 mg/day, 14 days", "result": "significantly greater rise"},
      {"measurement": "ACTH no RT, Fold change", "setting": "[1]; [6]", "result": "2.13 ± .96"},
      {"measurement": "cortisol no RT, Fold change", "setting": "[1]; [6]", "result": "1.56 ± .6"},
      {"measurement": "ACTH, Fold change", "setting": "[2]; [7]", "result": "1.75 ± .75"},
      {"measurement": "cortisol, Fold change", "setting": "[2]; [7]", "result": "1.21 ± .79"},
      {"measurement": "change in ACTH or cortisol following mifepristone therapy", "setting": "[2]; patients with ectopic ACTH, mifepristone 300 mg/day, 14 days", "result": "substantially no significant change"},
      {"measurement": "cortisol Post-mifepristone", "setting": "[3]; pre-mifepristone 19.7", "result": 32.9, "unit": "micrograms/deciliter"},
      {"measurement": "ACTH Post-mifepristone", "setting": "[3]; pre-mifepristone 84", "result": 129, "unit": "picograms/ml plasma"},
      {"measurement": "cortisol Post-mifepristone", "setting": "[4]; pre-mifepristone 2.1", "result": 11.3, "unit": "micrograms/deciliter"},
      {"measurement": "ACTH Post-mifepristone", "setting": "[4]; pre-mifepristone <5", "result": 13, "unit": "picograms/ml plasma"}
    ]}
  ]
}
